Experimental data: PubChem BioAssay (NCI)
Where “and” joins values, the source holds several entries; their conditions need not be identical. Identical values can stand only once.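 48-hour exposure; five concentrations; linearly interpolated endpoints. GI50 marks 50% less growth. TGI is the concentration that stops growth completely.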

Columns and labels:
Assay in all cases: NCI anticancer screen, dose series, 48 h
[1] = system: SR leukemia
[2] = system: HCT-116 colon
[3] = system: A549 NSCLC
[4] = system: A498 renal
[5] = system: SNB-19 CNS
[6] = system: U251 CNS
[7] = system: NCI-H226 lung
[8] = system: 786-0 renal
[9] = system: SK-MEL-5 melanoma
[10] = system: CAKI-1 renal

Row | Structure (SMILES) | GI50 [1] | TGI [1] [µM] | GI50 [2] | TGI [2] | GI50 [3] | TGI [3] | GI50 [4] | TGI [4] | GI50 [5] | TGI [5] | GI50 [6] | TGI [6] | GI50 [7] | TGI [7] | GI50 [8] | TGI [8] | GI50 [9] | TGI [9] | GI50 [10] | TGI [10]
1 | O=C(NCc1ccncc1)C12CC3CC(C1)CC(c1ccc(Cl)cc1)(C3)C2 | 7.98 µM | 35.7 | 9.4 µM | 22.3 µM | 15 µM | 30.8 µM | 7.85 µM | 20.8 µM | 13.5 µM | 27.8 µM | 14.2 µM | 28.6 µM | 12 µM | 31.1 µM | 12.6 µM | 25.8 µM | 5.7 µM | 18.3 µM | 11.9 µM | 24.9 µM
2 | O=c1c2ccccc2c2ccccc2c(=O)n1Cc1ccc2c(c1)OCO2 |  | 84.5 |  | > 100 µM |  | > 100 µM |  | > 100 µM |  | > 100 µM |  | > 100 µM |  | > 100 µM |  | > 100 µM |  | > 100 µM |  | > 100 µM
3 | COc1cc(-c2nn(-c3cccc(NC(=O)c4ccc(N5CCOCC5)c(C(F)(F)F)c4)c3)cc2-c2ccncc2)ccc1Cl | 0.0369 µM | > 100 | 0.299 µM | > 32.9 µM | 0.287 µM | > 36.9 µM | 0.103 µM | 0.765 µM | 0.57 µM | > 100 µM | 0.36 µM | 4.32 µM | 1.07 µM | 99.2 µM | 0.561 µM | 2.81 µM | 0.126 µM | 0.966 µM | 0.293 µM | 3.19 µM
4 | N#CC1=C(N)NC(=S)NC12Nc1ccccc1N2 | 6.18 µM | > 100 | 50 µM | > 100 µM | 37.6 µM | > 100 µM | 20 µM | 43.5 µM | 90.1 µM | > 100 µM | > 100 µM | > 100 µM | 20.6 µM | 88.2 µM | 51.7 µM | > 100 µM | 18.1 µM | 61 µM | 19.8 µM | > 100 µM
5 | CCCCCCCCCCCCCCCCOP(=O)(O)OP(=O)(O)OCC1OC(n2ccc(N)nc2=O)C(O)C1O (configuration not stated) |  | > 100 |  | > 100 µM |  | > 100 µM | > 100 µM | > 100 µM | > 100 µM and 23.8 µM | > 100 µM |  | > 100 µM |  | > 100 µM | > 100 µM and 26.2 µM | > 100 µM |  | > 100 µM | > 100 µM and 26.1 µM | > 100 µM
6 | CCC[CH2][Sn]1([CH2]CCC)[O]C(=O)c2ccc(C)cc2[O]1 | 0.255 µM | 1.25 | 0.985 µM | 2.18 µM | 1.57 µM | 2.97 µM | 0.367 µM | 1.06 µM | 0.32 µM | 1.12 µM | 0.316 µM | 1.16 µM | 1.5 µM | 2.93 µM | 1 µM | 2.17 µM | 1.38 µM | 2.7 µM | 0.229 µM | 0.669 µM
7 | COC(=O)/C=C/c1cn(C(C)=O)c2ccc(Br)cc12 | 32.5 µM | > 100 | 32.6 µM | > 100 µM | 33.8 µM | > 100 µM | 20.9 µM | 45.7 µM | 37.2 µM | > 100 µM | 28.2 µM | > 100 µM | 20.9 µM | > 93.4 µM | 17.4 µM | 39.2 µM | 33.5 µM | > 100 µM | 19.1 µM | 44.2 µM
8 | COc1ccc(-c2c(-c3cc(OC)c(OC)c(OC)c3)noc2N)cc1 | < 0.01 µM | 29.1 | < 0.01 µM | > 32 µM | < 0.0124 µM | > 100 µM | < 0.01 µM | 4.37 µM | 0.0342 µM | > 100 µM | < 0.0165 µM | 12.6 µM | 0.0244 µM | > 100 µM | < 0.017 µM |  | < 0.01 µM | 0.257 µM | < 0.01 µM | > 100 µM
9 | C=CN(C)S(C)(=O)=O | > 100 µM | > 100 | > 100 µM | > 100 µM | > 100 µM | > 100 µM | > 100 µM | > 100 µM | > 100 µM | > 100 µM | > 100 µM | > 100 µM | > 100 µM | > 100 µM | > 100 µM | > 100 µM | > 100 µM | > 100 µM | > 100 µM | > 100 µM
10 | CC1=C([Te]c2ccc(O)cc2)C(=O)c2ccccc2C1=O | 0.461 µM | 2.67 | 0.715 µM | 2.05 µM | 0.404 µM | 4.18 µM | 1.36 µM | 3.01 µM | 2.8 µM | 10.7 µM | 1.31 µM | 7.28 µM | 0.33 µM | 1.57 µM | 2.61 µM | 7.88 µM | 1.53 µM | 2.92 µM | 2.21 µM | 7.41 µM
11 | CCc1cc2c(cc1N1CCC(N3CCOCC3)CC1)C(C)(C)c1[nH]c3cc(C#N)ccc3c1C2=O | < 0.0149 µM and 0.0165 µM and 0.0525 µM |  | 1.76 µM and 1.79 µM and 3.1 µM | 3.85 µM and 3.6 µM and > 10 µM | 1.36 µM and 1.51 µM and 1.31 µM | 3.05 µM and 3.88 µM and 3.67 µM | 0.817 µM and 0.867 µM and 1.59 µM | 4.02 µM and 4.95 µM and > 10 µM | 1.66 µM and 1.79 µM and 3.17 µM | 4.02 µM and 4.44 µM and > 10 µM | 1.33 µM and 1.43 µM and 1.4 µM | 2.76 µM and 3.28 µM and 2.96 µM | 1.75 µM and 1.63 µM and 1.61 µM | 4.32 µM and 3.97 µM and 5.19 µM | 1.87 µM and 1.71 µM | 4.01 µM and 3.76 µM and 3.46 µM | 1.12 µM and 1.5 µM and 3 µM | 19.2 µM and 14.2 µM and > 10 µM | 1.26 µM and 1.28 µM and 1.13 µM | 12.4 µM and 4.57 µM and 3.87 µM
12 | CCc1ccc2c(c1)N(CCO)C1=C(C(=O)OC1)C2c1cccc(Cl)c1 (configuration not stated) | 0.445 µM | > 100 | 0.498 µM | 13.1 µM | 0.784 µM | 18.6 µM | 0.36 µM | 11.4 µM | 1.33 µM | 25.1 µM | 0.499 µM | 15.5 µM | 1.35 µM | 10.5 µM | 0.736 µM | 19 µM | 0.357 µM | 7.56 µM | 3.02 µM | 35.1 µM
13 | O=C(NO)c1ccc(Cn2c(=O)n(-c3ccccc3F)c(=O)c3ccccc32)cc1 | 1.56 µM | > 100 | 1.14 µM | 3.19 µM | 2.74 µM | 7.83 µM | 1.02 µM | 2.57 µM | 2.54 µM | 18.2 µM | 1.55 µM | 3.16 µM | 1.43 µM | 3.27 µM | 1.82 µM | 3.65 µM | 1.51 µM | 2.96 µM | 2.25 µM | 7.15 µM
